The target of series [1] is human rhinovirus 16 RNA polymerase (Human rhinovirus 16 (HRV-16), UniProt Q82122). It is filed as biochemical. The settings on record: recombinant enzyme, tritiated NMP incorporation, 2.5 hours at 30° C.; read-out: HRV16pol IC50.
Series [2] has as its target hepatitis C virus RNA polymerase (Hepatitis C virus genotype 1a (isolate H77) (HCV), UniProt P27958). The series is described as follows: HCV polymerase assay (HCVpol). The series is classed as biochemical. The settings on record: recombinant enzyme, tritiated NMP incorporation, 2.5 hours at 30° C. The method, then:
The enzyme activity of hepatitis C virus RNA polymerase (HCVpol) and human rhinovirus 16 RNA polymerase (HRV16pol) is measured as an incorporation of tritiated NMP into acid-insoluble RNA products. HCVpol and HRV16pol assay reactions contain 30-100 nM recombinant enzyme, 50-500 nM heteropolymeric RNA, 0.5 μCi tritiated NTP, 0.1-1 μM of other NTPs, in a standard reaction buffer containing MgCl2. Enzymatic reactions are incubated for 2.5 hours at 30° C., in the presence of increasing concentration of inhibitor. At the end of the reaction, the total RNA is precipitated with 10% TCA, and acid-insoluble RNA products are filtered on a size exclusion 96-well plate. After washing of the plate, scintillation liquid is added and radiolabeled RNA products are detected according to standard procedures with a Trilux Microbeta scintillation counter. The compound concentration at which the enzyme-catalyzed rate is reduced by 50% (IC50) is calculated by fitting the data to a non-linear regression (sigmoidal).

The target in series [3] is dengue virus NS5 polymerase domain (Dengue virus type 2, UniProt P14340). Briefly: Dengue polymerase assay (DENVpol). The settings on record: 100 nM recombinant enzyme, 3 hours at 30° C., mean of several independent experiments. The procedure: The enzyme activity of dengue virus NS5 polymerase domain (DENVpol, serotype 2, New Guinea C strain) was measured as an incorporation of tritiated NMP into acid-insoluble RNA products. DENVpol assay reactions contained 100 nM recombinant enzyme, 50 nM heteropolymeric RNA, about 0.5 μCi tritiated NTP, 0.33 μM of competing cold NTP, 40 mM HEPES (pH 7.5), 3 mM dithiothreitol, and 2 mM MgCl2. Standard reactions were incubated for 3 hours at 30° C., in the presence of increasing concentration of inhibitor. At the end of the reaction, RNA was precipitated with 10% TCA, and acid-insoluble RNA products were filtered on a size exclusion 96-well plate. After washing of the plate, scintillation liquid was added and radiolabeled RNA products were detected according to standard procedures with a Trilux Topcount scintillation counter. The compound concentration at which the enzyme-catalyzed rate was reduced by 50% (IC50) was calculated by fitting the data to a non-linear regression (sigmoidal).

A further series concerns Human rhinovirus 1B. The series is described as follows: Rhinovirus antiviral assay (HRV1B). The series is classed as cell-based. The settings on record: Rhinovirus A, 96 h.
The subject of series [4] is human β-coronavirus strain OC43. The series is described as follows: Coronavirus antiviral assay (OC43). The series is classed as cell-based. The settings on record: Betacoronavirus 1, OC43, 120 h; HeLa or MRC-5 cells, five days, CellTiter-Glo; read-out: OC43CoV EC50. The method, then:
(§1) The human β-coronavirus strain OC43 was purchased from ATCC (Manassas, Va.; item numbers VR-1558 and VR-740, respectively). 24 hours prior to dosing, HeLa human cervix epithelial cells (ATCC, CCL-2) or MRC-5 human lung fibroblast (ATCC, CCL-171) were plated in 96 well plates at a density of 1.5×10^5/ml in DMEM medium supplemented with 10% fetal bovine serum, 1% HEPES buffer, 1% Penicillin/Streptomycin and 1% non-essential amino acids (all Mediatech, Manassas, Va.). At the day of infection, serially diluted compounds were added to cells and incubated for 4 hours. After the end of the 4 hour pre-incubation period, cells were infected with either coronavirus strain OC43 or 229E. The virus inoculum was selected to cause 80-90% cytopathic effect. Infected cells were incubated for five days at 37° C., 5% CO2. To develop the assay, 100 μl media was replaced with 100 μl CellTiter-Glo® reagent (Promega, Madison, Wis.), and incubated for 10 min at room temperature. Luminescence was measured on a Victor X3 multi-label plate reader. Potential compound cytotoxicity was determined using uninfected parallel cultures.

A short description of series [5]: Cell viability (CC50) in the RSV replicon assay. The settings on record: human, HeLa-derived cells containing the stable RSV replicon, CellTiter-Glo.
For a further series, the system named is RSV replicon. The series is described as follows: microbe, parasite or virus in culture. The settings on record: human respiratory syncytial virus, 168 h, read-out: RSV EC50, HeLa-derived RSV replicon cells, 7 days, luciferase. It is filed as cell-based.
Series [6] in a line: Cytotoxicity in the DENV assay, uninfected parallel cultures. The settings on record: human.
The test system of a further series is Huh-7.5 cells. Described as above. The settings on record: read-out: DENV CC50; uninfected Huh-7.5 parallel cultures.
The subject of another series is Ebola minigenome. Briefly: microbe, parasite or virus in culture. The settings on record: Zaire ebolavirus, HEp-2, 48 h, read-out: EBOV EC50, HEp-2 cells, Ebola minigenome, 48 hours. The series is classed as cell-based.
A short description of series [7]: in vitro. The settings on record: human.
Series [8] can be described thus: Cytotoxicity in the coronavirus assay, uninfected parallel cultures. The series is classed as cell-based. The settings on record: human, read-out: OC43CoV CC50. The method, then: as §1
A short description of series [9]: Toxicity (CC50) in the HRV1B assay. The settings on record: human.
The test system of series [10] is Dengue virus type 2 NG-C or Dengue virus type 4 H241. Briefly: Dengue antiviral assay (DENV). The series is classed as cell-based. The settings on record: Huh-7.5 cells, five to six days, CellTiter-Glo. The procedure:
The Dengue virus type 2 strain New Guniea C (NG-C) and the Dengue virus type 4 strain H241 were purchased from ATCC (Manassas, Va.; item numbers VR-1584 and VR-1490, respectively). 24 hours prior to dosing, Huh-7.5 cells were plated in 96 well plates at a density of 1.5×10^5/ml in DMEM medium supplemented with 10% fetal bovine serum, 1% HEPES buffer, 1% Penicillin/Streptomycin and 1% non-essential amino acids (all Mediatech, Manassas, Va.). At the day of infection, serially diluted compounds were added to cells and incubated for 4 hours. After the end of the 4 hour pre-incubation period, cells were infected with either Dengue virus type 2 NG-C or Dengue virus type 4 H241. The virus inoculum was selected to cause 80-90% cytopathic effect in five to six days. Infected cells were incubated for five (NG-C) to six (H241) days at 37° C., 5% CO2. To develop the assay, 100 μl media was replaced with 100 μl CellTiter-Glo® reagent (Promega, Madison, Wis.), and incubated for 10 min at room temperature. Luminescence was measured on a Victor X3 multi-label plate reader. Potential compound cytotoxicity was determined using uninfected parallel cultures.

Series [11] is described as follows: in vitro. The settings on record: human. This is another data set of the same source.
Where [12] appears, read: read-out: HRV 1B EC50, HeLa-OHIO cells, 4 d, CellTiter-Glo.
[13] abbreviates: DENV CC50, uninfected Huh-7.5 parallel cultures.

We go through seven compounds from patent US11149049B2, “Substituted nucleosides, nucleotides and analogs thereof” (JANSSEN BIOPHARMA, INC., priority 2017, dated 2021).

Like-named read-outs stand apart in the source and are kept apart here.

Sequence of hepatitis C virus RNA polymerase (P27958 2421-3011 limits assumed): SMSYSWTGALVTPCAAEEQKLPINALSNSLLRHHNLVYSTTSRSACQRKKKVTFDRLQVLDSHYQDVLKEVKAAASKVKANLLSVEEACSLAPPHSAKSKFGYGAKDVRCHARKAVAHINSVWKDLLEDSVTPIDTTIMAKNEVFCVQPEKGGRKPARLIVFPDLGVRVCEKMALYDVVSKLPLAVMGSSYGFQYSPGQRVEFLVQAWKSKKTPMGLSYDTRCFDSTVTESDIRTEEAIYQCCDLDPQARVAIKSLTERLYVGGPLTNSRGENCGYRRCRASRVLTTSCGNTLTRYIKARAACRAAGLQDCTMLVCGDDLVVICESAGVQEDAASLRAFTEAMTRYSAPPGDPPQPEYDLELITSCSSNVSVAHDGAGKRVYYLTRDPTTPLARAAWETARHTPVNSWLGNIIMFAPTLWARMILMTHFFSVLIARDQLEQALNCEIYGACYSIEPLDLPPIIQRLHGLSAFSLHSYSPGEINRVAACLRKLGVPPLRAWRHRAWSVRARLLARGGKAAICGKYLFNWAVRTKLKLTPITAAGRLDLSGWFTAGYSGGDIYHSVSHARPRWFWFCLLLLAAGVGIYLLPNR
Sequence of human rhinovirus 16 RNA polymerase (Q82122 1694-2153 limits assumed): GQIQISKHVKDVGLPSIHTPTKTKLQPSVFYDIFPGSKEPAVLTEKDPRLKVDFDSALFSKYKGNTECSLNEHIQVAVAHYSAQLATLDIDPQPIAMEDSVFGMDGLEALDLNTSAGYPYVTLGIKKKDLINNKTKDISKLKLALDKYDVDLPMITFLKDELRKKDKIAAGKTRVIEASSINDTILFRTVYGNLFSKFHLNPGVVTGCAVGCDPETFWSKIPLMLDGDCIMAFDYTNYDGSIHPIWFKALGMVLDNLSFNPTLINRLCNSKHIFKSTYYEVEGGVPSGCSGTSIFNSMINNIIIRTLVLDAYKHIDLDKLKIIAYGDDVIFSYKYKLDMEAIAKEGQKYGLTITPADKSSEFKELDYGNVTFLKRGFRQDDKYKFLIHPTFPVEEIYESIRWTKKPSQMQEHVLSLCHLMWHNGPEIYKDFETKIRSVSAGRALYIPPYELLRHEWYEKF

For `N#C[C@@]1(c2ccc3c(N)ncnn23)O[C@](F)(COP(=O)(O)OP(=O)(O)OP(=O)(O)O)[C@@H](O)[C@H]1O` [Compound 12, ((2S,3S,4R,5R)-5-(4-Aminopyrrolo[2,1-f][1,2,4]triazin-7-yl)-5-cyano-2-fluoro-3,4-dihydroxytetrahydrofuran-2-yl)methyl tetrahydrogen triphosphate], the IC50 in series [1] stood at 130 nM; in [2] it was 400 nM; in series [3] it was 1100 nM.
On to `N#C[C@@]1(c2ccc3c(N)ncnn23)O[C@H](COP(=O)(O)OP(=O)(O)OP(=O)(O)O)[C@@H](O)[C@H]1O` [Compound C2, reference compound], for which the IC50 was 270 nM in series [1], 1000 nM in series [2] and 3600 nM in series [3].
On to `CC(C)CCOC(=O)C[C@H](NP(=O)(OC[C@@]1(F)O[C@@](C#N)(c2ccc3c(N)ncnn23)[C@H](O)[C@@H]1O)Oc1ccccc1)C(=O)OCCC(C)C` (stereo partly drawn) [Compound 7, Diisopentyl ((((2S,3S,4R,5R)-5-(4-aminopyrrolo[2,1-f][1,2,4]triazin-7-yl)-5-cyano-2-fluoro-3,4-dihydroxytetrahydrofuran-2-yl)methoxy)(phenoxy)phosphoryl)-L-aspartate], for which the EC50 with Human rhinovirus 1B (setting [12]) was 150 nM; in [4], 56 nM; with RSV replicon, 30 nM; with Ebola minigenome, 200 nM; in series [10] (Dengue virus, Huh7.5, 144 h), 1.4 nM. For the same compound, the CC50 at 7 days in series [5] was 21000 nM. Also, the CC50 in series [6] (setting [13]) was 15000 nM; with Huh-7.5 cells, 21000 nM; in “in vitro [7]”, 14000 nM. Also, the CC50 at 5 days in series [8] turned out to be 13000 nM. The same compound came in with a CC50 at 4 d in series [9] of 12400 nM.
Turning to `CCC(CC)COC(=O)[C@@H](C)NP(=O)(OC[C@H]1O[C@@](C#N)(c2ccc3c(N)ncnn23)[C@H](O)[C@@H]1O)Oc1ccccc1` (some centres unmarked) [Compound C1, reference compound], the EC50 in the series with Human rhinovirus 1B (HeLa-OHIO cells, 4 d, CellTiter-Glo, read-out: HRV 1B EC50) is 120 nM; in series [4], 65 nM; in the series on RSV replicon it was 20 nM; in the series with Ebola minigenome it was 800 nM; in series [10] (Dengue virus, Huh7.5, 144 h), 130 nM. For the same compound, the figures for the CC50 (in [6]; in the series “in vitro [7]”) were 22000 nM and 51000 nM, respectively. Also, the CC50 at 5 days in series [8] worked out at 69000 nM. The same compound showed a CC50 at 4 d in “in vitro [11]” of 6000 nM.
As for `N#C[C@@]1(c2ccc3c(N)ncnn23)O[C@](CF)(COP(=O)(O)OP(=O)(O)OP(=O)(O)O)[C@@H](O)[C@H]1O` [Compound 13, ((2R,3S,4R,5R)-5-(4-Aminopyrrolo[2,1-f][1,2,4]triazin-7-yl)-5-cyano-2-(fluoromethyl)-3,4-dihydroxytetrahydrofuran-2-yl)methyl tetrahydrogen triphosphate], the results for the IC50 in series [1], in series [2] and in [3] were 210 nM, greater than 10000 nM and greater than 10000 nM, respectively.
Consider `CC(C)OC(=O)[C@H](C)NP(=O)(OC[C@@]1(F)O[C@@](C#N)(c2ccc3c(N)ncnn23)[C@H](O)[C@@H]1O)Oc1ccccc1` (stereo partly drawn) [Compound 6, Isopropyl ((((2S,3S,4R,5R)-5-(4-aminopyrrolo[2,1-f][1,2,4]triazin-7-yl)-5-cyano-2-fluoro-3,4-dihydroxytetrahydrofuran-2-yl)methoxy)(phenoxy)phosphoryl)-L-alaninate], for which the EC50 was 4100 nM in the series with Human rhinovirus 1B (setting [12]); 1700 nM in [4]; 20 nM in the series on RSV replicon; 2500 nM in the series on Ebola minigenome; 250 nM in series [10] (Dengue virus, Huh7.5, 144 h); 330 nM in series [10]. Moreover, the CC50 at 7 days in series [5] was 43000 nM. Moreover, the values for the CC50 (in [6] (setting [13]); in the series with Huh-7.5 cells; in the series “in vitro [7]”) were 78000 nM, 69000 nM and greater than 100000 nM, respectively. Also, the CC50 at 5 days in [8] is greater than 100000 nM. This compound registered a CC50 at 4 d in [9] greater than 100000 nM.
Consider `N#C[C@@]1(c2ccc3c(N)ncnn23)O[C@@](COP(=O)(O)OP(=O)(O)OP(=O)(O)O)(N=[N+]=[N-])[C@@H](O)[C@H]1O` [Compound 14, ((2R,3S,4R,5R)-5-(4-Aminopyrrolo[2,1-f][1,2,4]triazin-7-yl)-2-azido-5-cyano-3,4-dihydroxytetrahydrofuran-2-yl)methyl tetrahydrogen triphosphate], for which the half-inhibitory concentration (IC50) in series [1] turned out to be 40 nM; in series [2], 300 nM; in [3], 1100 nM.
